Results as given in US8215314B2, “Photochemical tissue bonding” (The General Hospital Corporation, priority 2000, dated 2012).

Key:
[1] = system: corneal incision, rabbit eyes ex vivo; test: IOP required to produce fluid leakage from corneal incision (IOPL) after PTB, ex vivo; details: 488 nm
[2] = Absorption maxima and absorption coefficients of photosensitizers; assay type: physicochemical; details: for absorption coefficient at the laser wavelength used: RB at 514 nm, Fl at 488 nm, MB at 661 nm, R-5-P at 488 nm, N-HPT at 351 nm
Text: The photosensitizers were used as received with the exception of N-HPT which was recrystallized twice from aqueous ethanol before use.

[3] = system: corneal incision, rabbit eyes ex vivo; test: IOP required to produce fluid leakage from corneal incision (IOPL) after PTB, ex vivo; details: for mean IOPL: 4.5 mM, 351 nm
Method: PTB can be used to seal or repair a tissue, e.g., a wound, e.g., a corneal wound. This example illustrates the experimental procedure designed to test the efficacy of PTB, as described herein, using mammalian corneas ex vivo. Experiments were performed according to the following procedure.
Rabbit eyes were received on ice (Pel-Freez Biologicals) approximately 17-24 hours after sacrifice and enucleation. The eyes were kept on ice and used the same day. The eye to be studied was mounted on a plastic-covered polystyrene block and fixed in position by needles inserted through the extraocular muscles into the polystyrene. The eye was then placed under a dissecting microscope (Reichert Scientific Instruments, Ill.) allowing visualization of the treated area during the entire procedure. A 27 G needle was inserted parallel to the iris, 2 mm anterior to the limbus into clear cornea, and positioned above the lens in the anterior chamber. The needle was connected to both a blood pressure transducer (Harvard Apparatus, Mass.) and a mini-infuser 400 (Bard Harvard) via a T coupler. The pressure transducer consists of a transducer element that is hard wired to an amplifier box and uses a semi-disposable dome with an integral silicone rubber membrane. Pressure inside the dome is transmitted through the membrane to a plastic button whose motion is translated to a voltage. The voltage generated by the transducer amplifier combination is proportional to the […] intraocular pressure (IOP). Signals from the transducer amplifier were recorded using a Macintosh G3 Power book equipped with a PCMICA (DAQCARD—1200) data acquisition card (National Instruments, Tex.). Data acquisition was controlled using programs written using the LabView 4 software package (National Instruments, Tex.). The voltage from the transducer and amplifier was converted to pressure by calibrating with a standing manometer.
Experiments on individual eyes were initiated by increasing the IOP to 30-40 mm Hg, using water infusion at a rate of 1 mL per minute. An incision was made in the cornea, 1 mm from the limbus and parallel to the iris, using a 3.5 mm angled keratome (Becton Dickinson Co.). For each eye the IOP required to produce fluid leakage from the incision (IOPL) was recorded pre- and post-PTB treatment. A photosensitizer, dissolved in phosphate buffer solution (PBS, pH 7.2, Gibco BRL) was applied to the walls of the incision using a Gastight, 50 μl syringe (Hamilton Co.) with a 27 G needle.
Irradiations employed a continuous wave (CW) argon-ion laser (Innova 100; Coherent, Inc., Palo Alto, Calif.) at 488 nm (for Fl and R-5-P), 514.5 nm (for RB) or 351 nm (for NHPT). An argon-ion-pumped dye laser (CR-599; Coherent) with 4-dicyanomethylene-2-methyl-6-(p-dimethylaminostyryl)-4H-pyran dye (Exciton, Inc., Dayton, Ohio) was used for irradiation at 661 nm (for MB). Laser light was coupled into a 1 mm diameter quartz fiber and a 1 cm diameter spot on the tissue was created by using a combination of 1 and 2 inch focal length, S1-UV grade fused silica, biconvex lenses (Esco Products), mounted in a SM1 series cage assembly (Thorlabs, N.J.). The 1 cm diameter circular spot was sufficient to cover the entire incision and the optics were adjusted so that the laser light was incident on the cornea at an angle approximately 45° to the plane of the incision. Dose response curves were obtained by varying the duration of the irradiation at a constant irradiance. In separate experiments the effects of laser irradiance were investigated by comparison of the same delivered dose using different irradiances. The doses used ranged from 124 to 1524 J/cm^2 and the irradiances used were 0.64, 1.27, 2.55 and 3.86 W/cm^2. The laser exposure time varied from 33 seconds for the lowest dose using the highest irradiance to 26 minutes, 27 seconds for the highest dose using the lowest irradiance. The IOPL was recorded immediately following treatment. […]

SMILES	IOPL ([1]; 0.6 mM Fl, 762 J/cm^2 at 3.82 W/cm^2)	absorption maximum [2]	absorption coefficient at the laser wavelength used [2]	post-treatment IOPL ([3]; MB 3 mM, 661 nm, 0.64 W/cm^2, doses 508, 762 and 1016 J/cm^2)	mean IOPL ([3]; 0.64 W/cm2, 254 J/cm2)	mean IOPL ([3]; 0.64 W/cm2, 508 J/cm2)	post PTB treatment IOPL value ([1]; 11 mM R-5-P, 762 and 1016 J/cm^2, 1.27-3.82 W/cm^2, p<0.05)
O=C1OC2(c3ccc(O)cc3Oc3cc(O)ccc32)c2ccccc21 [Fl, fluorescein]	116±40 mm Hg	–	–	–	–	–	–
CN(C)c1ccc2nc3ccc(=[N+](C)C)cc-3sc2c1 [MB, methylene blue]	–	664 nm	15600 dm^3 mol^−1 cm^−1	did not increase	–	–	–
On1ccccc1=S [N-HPT, N-hydroxypyridine-2-(1H)-thione]	–	314 nm	2110 dm^3 mol^−1 cm^−1	–	60±23 mm Hg	126±40 mm Hg	–
Cc1cc2nc3c(=O)[nH]c(=O)nc-3n(C[C@H](O)[C@H](O)[C@H](O)COP(=O)(O)O)c2cc1C [R-5-P, riboflavin-5-phosphate]	–	445 nm	4330 dm^3 mol^−1 cm^−1	–	–	–	significantly increased
